Reference: patent US6949522B2, “β-2′- or 3′-halonucleosides” (Pharmasset, Inc., priority 2001, dated 2005)

Each compound was assayed on HIV-1 LAI (wild type) (assay: HIV-1 Q-RT-PCR assay in human PBM cells, strain LAI). Conditions: 5 days, viral RNA reduced by 90%.
Format: cell-based
Experimental: (§1) Human PBM cells (1×10^6 cells/T25 flask) were PHA stimulated for 2 or 3 days, and infected with either a wild type (LAI and xxBRU) or a 3TC-resistant (xxBRU 184V) HIV-1 strain at 100 TCID50, as previously described (27). The culture was kept for 5 days in presence of test compounds at serial 1-log dilutions. Subsequently, human PBM cells were removed from the culture supernatant by centrifugation (10 minutes, 400×g, 4° C.). This clarified supernatant was tested either in the RT-assay, or in the Q-RT-PCR assay.
Viral RNA present in the culture supernatant was prepared using commercially available columns (QIAamp Viral RNA mini Kit, Qiagen, Valencia, Calif.). Viral RNA was detected in real-time by monitoring increases in fluorescence signal that resulted from degradation of a quenched fluorescent probe molecule following the hybridization of the probe to the arnplified viral DNA (TaqMan 7700 chemistry, Applied Biosystems, Foster City, Calif.). The TaqMan probe and primers were designed using the Primer Express software (Applied Biosystems); they cover highly conserved sequences complementary to an 81 base pair long fragment from the HIV-1 RT gene between codon 230 and 257 of the group MHIV-1 genome; • probe 5′-6FAM-[…]-TAMRA-3′ (Sequence 1) • sense primer: 5′-[…]-3′ (Sequence 2); and • antisense primer 5′-[…]-3′ (Sequence 3).
A total of 5 μL RNA was RT-amplified using reagents and conditions as described by the manufacturer (Applied Biosystems). […] Copy numbers were calibrated using the Roche Amplicor HIV-1 Monitor test™ (Roche Diagnostics, Branchburg, N.J.) on a 1-log dilution series of a clinical HIV-1 genotype B isolate (attenuated in vitro to obtain a high viral load). The 10-6 diluted sample became positive at threshold cycle (Ct=PCR cycle threshold where a sample becomes detectable)=35.52, which corresponded to 1,410 copies/mL in the Roche monitor HIV-1 version II assay. When validated over a dynamic range of 3 logs of virus, there was excellent correlation (r2˜1) between the two methodologies. […] Therefore, the currently designed primer and probe set allowed reliable quantification of both clinical samples and HIV-1 in vitro preparations.
(§2) HIV-1 present in culture supernatant fluids was quantified by two different methodologies: i) the Q-RT-PCR with read-out in log copies/mL; and ii) the endogenous viral RT assay on cell supernatant with read-out in log counts per minute/mL (CPM/mL). Upon addition of antiviral compounds to the culture media, a dose-related decrease in virus production was observed. Although the two methodologies measured different parameters (viral RNA versus active RT enzyme), results were not markedly different from each other. The HIV-1 Q-RT-PCR results were compared with a previously established cell-based antiviral drug evaluation assay (endogenous HIV-1 RT polymerization activity in cell supematant)(27).
In the case of `Nc1ccn([C@@H]2C=C(F)[C@H](CO)O2)c(=O)n1` [Compound 23, 1-(2,3-Didcoxy-3-fluoro-β-L-glycero-pent-2-eno-furanosyl)cytosine], the EC90 is reported as 920 nM.
`Nc1ccn([C@@H]2S[C@H](CO)C=C2F)c(=O)n1` [Compound D-17, (−)-1-[(1S,4R)-2,3-dideoxy-2,3-didehydro-2-fluoro4-thio-β-D-ribofuranosyl]-cytosine] gave an EC90 of 24600 nM.
`Nc1nc(=O)n([C@@H]2S[C@H](CO)C=C2F)cc1F` [Compound D-18, (−)-1-[(1S,4R)-2,3-dideoxy-2,3-didehydro-2-fluoro-4-thio-β-D-ribofuranosyl]-5-fluorocytosine] was tested, and the EC90 was over 100000 nM.
Compound `Nc1ccn([C@H]2S[C@@H](CO)C=C2F)c(=O)n1` [Compound L-17, (+)-1-[(1S,4R)-2,3-dideoxy-2,3-didehydro-2-fluoro-4-thio-β-L-ribofuranosyl]-cytosine] has an EC90 of 4100 nM.
`Nc1nc(=O)n([C@H]2S[C@@H](CO)C=C2F)cc1F` [Compound L-18, (+)-1-[(1S,4R)-2,3-dideoxy-2,3-didehydro-2-fluoro-4-thio-β-L-ribofuranosyl]-5-fluoro-cytosine] gave an EC90 of 4300 nM.

Same assay, conditions: Human immunodeficiency virus 1, PBMC, 120 h, 5 days, viral RNA reduced by 90%
Compound `Cc1cn([C@H]2C[C@H](N=[N+]=[N-])[C@@H](CO)O2)c(=O)[nH]c1=O` [AZT, 3′-azido-3′-deoxythymidine, reference compound] has an EC90 of 30 nM.
For `Nc1ccn([C@@H]2CS[C@H](CO)O2)c(=O)n1` [Compound 3TC, (−)-β-2′,3′-dideoxy-3′-thiacytidine, reference compound], the EC90 was 370 nM.
`Nc1ccn([C@@H]2C=C(F)[C@H](CO)O2)c(=O)n1` [Compound 10, 1-(2,3-Dideoxy-3-fluoro-β-L-glycero-pent-2-eno-furanosyl)cytosine] showed an EC90 of 50600 nM.

These compounds were tested on rRNA gene (assay: not given). Conditions: HepG2, 10 μM, 7 days.
Format: cell-based, human
Experimental: Low passage number HepG2 cells, obtained from American Tissue Culture Collection (ATCC, Manassas, Va.) were seeded at 5,000 cells/well in collagen-coated 96-well plates. Test compounds were added to the media to obtain a final concentration of 10 μM. On culture day 7, cellular nucleic acids were prepared by using commercially available columns (RNeasy 96 kit, Qiagen).
The rRNA gene primers and probes were purchased from Applied Biosystems. […] The comparative Ct method uses arithmetic formulas in which the amount of target (COXII gene) is normalized to an endogenous reference (β-actin gene or rRNA gene) and is relative to a calibrator (no drug control at day 7). The arithmetic formula for this approach is given by 2-ΔΔCt (User bulletin # 2, Applied Biosystems).
In order to study the consequences of possible inhibitory effects of these compounds on host DNA polymerases, nuclear and rnitochondrial DNA levels were quantified and compared to no-treatment controls. Cells were incubated for 7 days with 10 μM of each compound, followed by total nucleic acid extractions and multiplex Q-PCR of the rRNA gene and the mitochondrial COXII gene. Nucleic acids from cells exposed to the control compounds were also amplified in multiplex for mitDNA and the β-actin gene.
In the case of `Cc1cn([C@H]2C[C@H](N=[N+]=[N-])[C@@H](CO)O2)c(=O)[nH]c1=O` [AZT, 3′-azido-3′-deoxythymidine, reference compound], the “Average ΔCt ± SD rDNA” value is reported as 0.86 ± 0.55 and the “Average ΔΔCt ± SD rDNA-β-actin” value is reported as 0.76 ± 0.87.
In the case of `Nc1ccn([C@@H]2CS[C@H](CO)O2)c(=O)n1` [Compound 3TC, (−)-β-2′,3′-dideoxy-3′-thiacytidine, reference compound], the “Average ΔCt ± SD rDNA” value is reported as 0.47 ± 0.51 and the “Average ΔΔCt ± SD rDNA-β-actin” value is reported as 0.36 ± 0.66.
For `Nc1ccn([C@@H]2C=C(F)[C@H](CO)O2)c(=O)n1` [Compound 10, 1-(2,3-Dideoxy-3-fluoro-β-L-glycero-pent-2-eno-furanosyl)cytosine], the “Average ΔCt ± SD rDNA” value was −0.08 ± 0.50.
With `Nc1ccn([C@@H]2C=C(F)[C@H](CO)O2)c(=O)n1` [Compound 23, 1-(2,3-Didcoxy-3-fluoro-β-L-glycero-pent-2-eno-furanosyl)cytosine] the “Average ΔCt ± SD rDNA” value was −0.51 ± 0.35.
With `Nc1ccn([C@@H]2S[C@H](CO)C=C2F)c(=O)n1` [Compound D-17, (−)-1-[(1S,4R)-2,3-dideoxy-2,3-didehydro-2-fluoro4-thio-β-D-ribofuranosyl]-cytosine] the “Average ΔCt ± SD rDNA” value was 0.81 ± 0.60.
With `Nc1nc(=O)n([C@@H]2S[C@H](CO)C=C2F)cc1F` [Compound D-18, (−)-1-[(1S,4R)-2,3-dideoxy-2,3-didehydro-2-fluoro-4-thio-β-D-ribofuranosyl]-5-fluorocytosine] the “Average ΔCt ± SD rDNA” value was −0.45 ± 0.60.
With `Nc1ccn([C@H]2S[C@@H](CO)C=C2F)c(=O)n1` [Compound L-17, (+)-1-[(1S,4R)-2,3-dideoxy-2,3-didehydro-2-fluoro-4-thio-β-L-ribofuranosyl]-cytosine] the “Average ΔCt ± SD rDNA” value was 0.49 ± 0.77.
For `Nc1nc(=O)n([C@H]2S[C@@H](CO)C=C2F)cc1F` [Compound L-18, (+)-1-[(1S,4R)-2,3-dideoxy-2,3-didehydro-2-fluoro-4-thio-β-L-ribofuranosyl]-5-fluoro-cytosine], the “Average ΔCt ± SD rDNA” value was 0.10 ± 0.44.

These compounds were tested on HIV-1 xxBRU (wild type) (assay: HIV-1 RT-assay on supernatant of acutely infected human PBM cells, strain xxBRU). Conditions: 5 days, RT activity reduced by 90%.
Format: cell-based
Experimental: as §1
Virus particles present in a 1 mL aliquot of culture supernatant were concentrated by high-speed centrifugation (2 hours, 20,000×g, 4° C.). The supernatant was then removed and the virus pellet was dispensed into a 100 μL virus solubilization buffer (VSB: 0.5% Triton X-100; 0.8 M NaCl, 0.5 mM phenylmethylsulfonyl, 20% glycerol, 50 mM Tris.HCl pH 7.8). A 10 μL aliquot of RT-VSB was mixed with 75 μL RT cocktail (60 mM Tris.HCl pH 7.8, 12 mM MgCl2, 6 mM DTT, 6 μg/mL poly (rA)n-oligo (dT)10-12, 1.2 mM dATP, and 80 μCi/mL 3H-TTP) and incubated for 2 hours at 37° C. Subsequently 100 μL of 10% TCA was added, and the total amount of incorporated 3H-TTP was determined.
as §2
`Nc1ccn([C@@H]2C=C(F)[C@H](CO)O2)c(=O)n1` [Compound 23, 1-(2,3-Didcoxy-3-fluoro-β-L-glycero-pent-2-eno-furanosyl)cytosine] was tested, and the EC90 was 140 nM.
`Nc1ccn([C@@H]2S[C@H](CO)C=C2F)c(=O)n1` [Compound D-17, (−)-1-[(1S,4R)-2,3-dideoxy-2,3-didehydro-2-fluoro4-thio-β-D-ribofuranosyl]-cytosine] showed an EC90 of 5000 nM.
Work on `Nc1nc(=O)n([C@@H]2S[C@H](CO)C=C2F)cc1F` [Compound D-18, (−)-1-[(1S,4R)-2,3-dideoxy-2,3-didehydro-2-fluoro-4-thio-β-D-ribofuranosyl]-5-fluorocytosine] yielded an EC90 of 119000 nM.
With `Nc1ccn([C@H]2S[C@@H](CO)C=C2F)c(=O)n1` [Compound L-17, (+)-1-[(1S,4R)-2,3-dideoxy-2,3-didehydro-2-fluoro-4-thio-β-L-ribofuranosyl]-cytosine] the EC90 was 1400 nM.
`Nc1nc(=O)n([C@H]2S[C@@H](CO)C=C2F)cc1F` [Compound L-18, (+)-1-[(1S,4R)-2,3-dideoxy-2,3-didehydro-2-fluoro-4-thio-β-L-ribofuranosyl]-5-fluoro-cytosine] gave an EC90 of 1100 nM.

Same assay, conditions: Human immunodeficiency virus 1, PBMC, 120 h, 5 days, RT activity reduced by 90%
`Cc1cn([C@H]2C[C@H](N=[N+]=[N-])[C@@H](CO)O2)c(=O)[nH]c1=O` [AZT, 3′-azido-3′-deoxythymidine, reference compound] was tested, and the EC90 was 10 nM.
`Nc1ccn([C@@H]2CS[C@H](CO)O2)c(=O)n1` [Compound 3TC, (−)-β-2′,3′-dideoxy-3′-thiacytidine, reference compound] was tested, and the EC90 was 80 nM.
Work on `Nc1ccn([C@@H]2C=C(F)[C@H](CO)O2)c(=O)n1` [Compound 10, 1-(2,3-Dideoxy-3-fluoro-β-L-glycero-pent-2-eno-furanosyl)cytosine] yielded an EC90 of 35500 nM.
